Assay results from patent US10590132B2, “Selective estrogen receptor down-regulators” (AstraZeneca AB, priority 2017, dated 2020).

test: Human plasma protein binding (equilibrium dialysis); format: in vitro ADME; settings: dialysis 18 hours

| Compound | Human plasma protein binding (% free) |
| --- | --- |
| COc1ccc(O[C@H](C)CNCCCF)cc1[C@@H]1c2[nH]c3ccccc3c2C[C@@H](C)N1CC(F)(F)CO [Example 47, 2,2-difluoro-3-((1R,3R)-1-(5-(((R)-1-((3-fluoropropyl)amino)propan-2-yl)oxy)-2-methoxyphenyl)-3-methyl-1,3,4,9-tetrahydro-2H-pyrido[3,4-b]indol-2-yl)propan-1-ol] | 6.1 % free |
| COc1ccc(OC[C@@H](C)NCCCF)cc1[C@@H]1c2[nH]c3ccccc3c2C[C@@H](C)N1CC(F)(F)CO [Example 50, 2,2-difluoro-3-((1R,3R)-1-(5-((R)-2-((3-fluoropropyl)amino)propoxy)-2-methoxyphenyl)-3-methyl-1,3,4,9-tetrahydro-2H-pyrido[3,4-b]indol-2-yl)propan-1-ol] | 7.1 % free |
| C[C@@H]1Cc2c([nH]c3ccccc23)[C@@H](c2c(F)ccc(OCCNCCCF)c2F)N1CC(F)F [Example 51, N-(2-(3-((1R,3R)-2-(2,2-difluoroethyl)-3-methyl-2,3,4,9-tetrahydro-1H-pyrido[3,4-b]indol-1-yl)-2,4-difluorophenoxy)ethyl)-3-fluoropropan-1-amine] | 2.3 % free |
| COc1ccc(OCCNCCCF)cc1[C@@H]1c2[nH]c3ccccc3c2C[C@@H](C)N1C[C@H](C)C(=O)O [Example 53, (S)-3-((1R,3R)-1-(5-(2-((3-fluoropropyl)amino)ethoxy)-2-methoxyphenyl)-3-methyl-1,3,4,9-tetrahydro-2H-pyrido[3,4-b]indol-2-yl)-2-methylpropanoic acid] | 80 % free |
| C[C@@H]1Cc2c([nH]c3ccccc23)[C@@H](c2c(Cl)ccc(OCCNCCCF)c2F)N1C[C@H](C)C(=O)O [Example 54, (S)-3-((1R,3R)-1-(6-chloro-2-fluoro-3-(2-((3-fluoropropyl)amino)ethoxy)phenyl)-3-methyl-1,3,4,9-tetrahydro-2H-pyrido[3,4-b]indol-2-yl)-2-methylpropanoic acid] | 18 % free |
| COc1ccc(OCCNCCCF)nc1[C@@H]1c2[nH]c3ccccc3c2C[C@@H](C)N1CC(F)(F)F [Example 56, 3-fluoro-N-(2-((5-methoxy-6-((1S,3R)-3-methyl-2-(2,2,2-trifluoroethyl)-2,3,4,9-tetrahydro-1H-pyrido[3,4-b]indol-1-yl)pyridin-2-yl)oxy)ethyl)propan-1-amine] | 4.6 % free |
| C[C@@H]1Cc2c([nH]c3c(F)cccc23)[C@@H](c2c(F)ccc(OCCNCCCF)c2F)N1CC(F)(F)CO [Example 60, 3-((1R,3R)-1-(2,6-difluoro-3-(2-((3-fluoropropyl)amino)ethoxy)phenyl)-8-fluoro-3-methyl-1,3,4,9-tetrahydro-2H-pyrido[3,4-b]indol-2-yl)-2,2-difluoropropan-1-ol] | 1.9 % free |
| C[C@@H]1Cc2c([nH]c3cc(F)ccc23)[C@@H](c2c(F)ccc(OCCNCCCF)c2F)N1CC(F)(F)CO [Example 61, 3-((1R,3R)-1-(2,6-difluoro-3-(2-((3-fluoropropyl)amino)ethoxy)phenyl)-7-fluoro-3-methyl-1,3,4,9-tetrahydro-2H-pyrido[3,4-b]indol-2-yl)-2,2-difluoropropan-1-ol] | 2.0 % free |
| C[C@@H]1Cc2c([nH]c3cccc(F)c23)[C@@H](c2c(F)ccc(OCCNCCCF)c2F)N1CC(F)(F)CO [Example 62, 3-((1R,3R)-1-(2,6-difluoro-3-(2-((3-fluoropropyl)amino)ethoxy)phenyl)-5-fluoro-3-methyl-1,3,4,9-tetrahydro-2H-pyrido[3,4-b]indol-2-yl)-2,2-difluoropropan-1-ol] | 1.2 % free |
| Cc1ccc2[nH]c3c(c2c1)C[C@@H](C)N(CC(F)(F)CO)[C@@H]3c1c(F)ccc(OCCNCCCF)c1F [Example 63, 3-((1R,3R)-1-(2,6-difluoro-3-(2-((3-fluoropropyl)amino)ethoxy)phenyl)-3,6-dimethyl-1,3,4,9-tetrahydro-2H-pyrido[3,4-b]indol-2-yl)-2,2-difluoropropan-1-ol] | 0.97 % free |
| C[C@@H]1Cc2c([nH]c3ccc(F)cc23)[C@@H](c2c(F)cnc(OCCNCCCF)c2F)N1CC(F)(F)CO [Example 65, 3-((1R,3R)-1-(3,5-difluoro-2-(2-((3-fluoropropyl)amino)ethoxy)pyridin-4-yl)-6-fluoro-3-methyl-1,3,4,9-tetrahydro-2H-pyrido[3,4-b]indol-2-yl)-2,2-difluoropropan-1-ol] | 1.9 % free |
| Cc1ccc2[nH]c3c(c2c1)C[C@@H](C)N(CC(F)(F)CO)[C@@H]3c1c(F)cnc(OCCNCCCF)c1F [Example 66, 3-((1R,3R)-1-(3,5-difluoro-2-(2-((3-fluoropropyl)amino)ethoxy)pyridin-4-yl)-3,6-dimethyl-1,3,4,9-tetrahydro-2H-pyrido[3,4-b]indol-2-yl)-2,2-difluoropropan-1-ol] | 1.3 % free |
| COc1ccc(OCCNCCCF)c(F)c1[C@@H]1c2[nH]c3ccccc3c2C[C@@H](C)N1CC(F)F [Example 82, N-(2-(3-((1R,3R)-2-(2,2-difluoroethyl)-3-methyl-2,3,4,9-tetrahydro-1H-pyrido[3,4-b]indol-1-yl)-2-fluoro-4-methoxyphenoxy)ethyl)-3-fluoropropan-1-amine] | 1.9 % free |

Next, values leading:

| Human plasma protein binding (% free) | Compound |
| --- | --- |
| 1.6 % free | C[C@@H]1Cc2c([nH]c3ccc(F)cc23)[C@@H](c2c(F)cnc(OCCN(C)CCCF)c2F)N1CC(F)(F)CO [Example 67, 3-((1R,3R)-1-(3,5-difluoro-2-(2-((3-fluoropropyl)(methyl)amino)ethoxy)pyridin-4-yl)-6-fluoro-3-methyl-1,3,4,9-tetrahydro-2H-pyrido[3,4-b]indol-2-yl)-2,2-difluoropropan-1-ol] |
| 1.2 % free | C[C@@H]1Cc2c([nH]c3ccccc23)[C@@H](c2cccc(OCCNCCCF)c2C(F)F)N1CC(F)(F)CO [Example 68, 3-((1R,3R)-1-(2-(difluoromethyl)-3-(2-((3-fluoropropyl)amino)ethoxy)phenyl)-3-methyl-1,3,4,9-tetrahydro-2H-pyrido[3,4-b]indol-2-yl)-2,2-difluoropropan-1-ol] |
| 2.2 % free | C[C@@H]1Cc2c([nH]c3ccccc23)[C@@H](c2cccc(OCCNCCCF)c2C#N)N1CC(F)(F)F [Example 69, 2-(2-((3-fluoropropyl)amino)ethoxy)-6-((1R,3R)-3-methyl-2-(2,2,2-trifluoroethyl)-2,3,4,9-tetrahydro-1H-pyrido[3,4-b]indol-1-yl)benzonitrile] |
| 23 % free | C[C@@H]1Cc2c([nH]c3ccccc23)[C@@H](c2cc(OCCNCCCF)ccc2CO)N1CC(F)(F)F [Example 70, (4-(2-((3-fluoropropyl)amino)ethoxy)-2-((1R,3R)-3-methyl-2-(2,2,2-trifluoroethyl)-2,3,4,9-tetrahydro-1H-pyrido[3,4-b]indol-1-yl)phenyl)methanol] |
| <0.1 % free | COc1ccc(OCCNCCC(F)(F)F)cc1[C@@H]1c2[nH]c3ccccc3c2C[C@@H](C)N1CC(F)(F)F [Example 72, 3,3,3-trifluoro-N-(2-(4-methoxy-3-((1R,3R)-3-methyl-2-(2,2,2-trifluoroethyl)-2,3,4,9-tetrahydro-1H-pyrido[3,4-b]indol-1-yl)phenoxy)ethyl)propan-1-amine] |
| 0.08 % free | C[C@@H]1Cc2c([nH]c3ccccc23)[C@@](C)(c2cccc(OCCNCCCF)c2)N1CC(F)(F)F [Example 75, N-(2-(3-((1R,3R)-1,3-dimethyl-2-(2,2,2-trifluoroethyl)-2,3,4,9-tetrahydro-1H-pyrido[3,4-b]indol-1-yl)phenoxy)ethyl)-3-fluoropropan-1-amine] |
| 5.5 % free | C[C@@H]1Cc2c([nH]c3ccccc23)[C@@H](c2c(F)ccc(OCCNCCCF)c2F)N1CC1(S(C)(=O)=O)CC1 [Example 77, N-(2-(2,4-difluoro-3-((1R,3R)-3-methyl-2-((1-(methylsulfonyl)cyclopropyl)methyl)-2,3,4,9-tetrahydro-1H-pyrido[3,4-b]indol-1-yl)phenoxy)ethyl)-3-fluoropropan-1-amine] |
| 0.21 % free | C[C@@H]1Cc2c([nH]c3ccccc23)[C@@H](c2c(Cl)ccc(OCCNCCCF)c2F)N1CC(F)(F)F [Example 78, N-(2-(4-chloro-2-fluoro-3-((1R,3R)-3-methyl-2-(2,2,2-trifluoroethyl)-2,3,4,9-tetrahydro-1H-pyrido[3,4-b]indol-1-yl)phenoxy)ethyl)-3-fluoropropan-1-amine] |
| <0.4 % free | Cc1ccc(OCCNCCCF)c(C)c1[C@@H]1c2[nH]c3ccccc3c2C[C@@H](C)N1CC(F)(F)F [Example 79, N-(2-(2,4-dimethyl-3-((1R,3R)-3-methyl-2-(2,2,2-trifluoroethyl)-2,3,4,9-tetrahydro-1H-pyrido[3,4-b]indol-1-yl)phenoxy)ethyl)-3-fluoropropan-1-amine] |
| 2.9 % free | COc1ccc(OCCNCCCF)c(F)c1[C@@H]1c2[nH]c3ccccc3c2C[C@@H](C)N1CC(F)(F)CO [Example 81, 2,2-difluoro-3-((1R,3R)-1-(2-fluoro-3-(2-((3-fluoropropyl)amino)ethoxy)-6-methoxyphenyl)-3-methyl-1,3,4,9-tetrahydro-2H-pyrido[3,4-b]indol-2-yl)propan-1-ol] |
| 2.5 % free | COc1ccc(OCCNCCCF)c(F)c1[C@@H]1c2[nH]c3ccccc3c2C[C@@H](C)N1CC1(F)CC1 [Example 83, 3-fluoro-N-(2-(2-fluoro-3-((1R,3R)-2-((1-fluorocyclopropyl)methyl)-3-methyl-2,3,4,9-tetrahydro-1H-pyrido[3,4-b]indol-1-yl)-4-methoxyphenoxy)ethyl)propan-1-amine] |
| 6 % free | COc1ccc(OCCNCCCF)c(F)c1[C@@H]1c2[nH]c3ccccc3c2C[C@@H](C)N1CC1(F)COC1 [Example 84, 3-fluoro-N-(2-(2-fluoro-3-((1R,3R)-2-((3-fluorooxetan-3-yl)methyl)-3-methyl-2,3,4,9-tetrahydro-1H-pyrido[3,4-b]indol-1-yl)-4-methoxyphenoxy)ethyl)propan-1-amine] |
